The text below walks through data of patent US20160280688A1, “SUBSTITUTED PHENYLALANINE DERIVATIVES” (BAYER PHARMA AKTIENGESELLSCHAFT, priority 2013, published 2016).

Format in all cases: biochemical
For one test, the target named is T1, human factor XIa (Homo sapiens, UniProt P03951).
T1 construct: purchased Kordia
Description: Measurement of FXIa inhibition (fluorogenic peptide substrate Boc-Glu(OBzl)-Ala-Arg-AMC). To be noted: factor XIa from Kordia, 15 min preincubation, 30 min at 22° C., fluorescence. The method, then: To determine the factor XIa inhibition of the substances according to the invention, a biochemical test system is used which utilizes the reaction of a peptidic factor XIa substrate to determine the enzymatic activity of human factor XIa. Here, factor XIa cleaves from the peptic factor XIa substrate the C-terminal aminomethylcoumarin (AMC), the fluorescence of which is measured. The determinations are carried out in microtitre plates.
(§1) Test substances are dissolved in dimethyl sulphoxide and serially diluted in dimethyl sulphoxide (3000 μM to 0.0078 μM; resulting final concentrations in the test: 50 μM to 0.00013 μM). In each case 1 μl of the diluted substance solutions are placed into the wells of white microtitre plates from Greiner (384 wells). Subsequently, the following are added successively: 20 μl of assay buffer (50 mmol/l Tris buffer pH 7.4; 100 mmol/l sodium chloride; 5 mmol/l calcium chloride; 0.1% bovine serum albumin) and 20 μl of factor XIa from Kordia (0.45 nM in assay buffer). After 15 min of incubation, the enzyme reaction is started by addition of 20 μl of the factor XIa substrate Boc-Glu(OBzl)-Ala-Arg-AMC dissolved in assay buffer (10 μM in assay buffer) from Bachem, the mixture is incubated at room temperature (22° C.) for 30 min and fluorescence is then measured (excitation: 360 nm, emission: 460 nm). The measured emissions of the test batches with test substance are compared to those of control batches without test substance (only dimethyl sulphoxide instead of test substance in dimethyl sulphoxide), and IC50 values are calculated from the concentration/activity relationships.

A further test deals with human and animal plasma. Nature of the test: Determination of the anticoagulatory activity: activated partial thromboplastin time (aPTT) in plasma. To be noted: in vitro in plasma, C.K. Prest kit, 3 min at 37° C. The method, then: The anticoagulatory activity of the test substances is determined in vitro in human and animal plasma (for example mouse, rat, rabbit, pig and dog plasma). To this end, blood is drawn off in a mixing ratio of sodium citrate/blood of 1:9 using a 0.11 molar sodium citrate solution as receiver. Immediately after the blood has been drawn off, it is mixed thoroughly and centrifuged at about 4000 g for 15 minutes. The supernatant is pipetted off.
The activated partial thromboplastin time (aPTT) is determined in the presence of varying concentrations of test substance or the corresponding solvent using a commercial test kit (C.K. Prest from Diagnostica Stago). The test compounds are incubated with the plasma and the PTT reagent (cephalin, kaolin) at 37° C. for 3 minutes. Coagulation is then started by addition of a 25 mM aqueous calcium chloride solution, and the time when coagulation occurs is determined. The concentration of test substance which brings about a 1.5-fold extension of the aPTT is determined Activity data from this test are listed in Table B below: […]

A further test addresses T2, human plasmin (Homo sapiens, UniProt P00747).
T2 construct: purchased Kordia
Description: Measurement of plasmin inhibition (fluorogenic peptide substrate MeOSuc-Ala-Phe-Lys-AMC). Particulars: plasmin from Kordia, 15 min preincubation, 30 min at 22° C., fluorescence. The method, then:
The plasmin inhibition of the inventive substances is determined using a biochemical test system which utilizes the reaction of a peptidic plasmin substrate to determine the enzymatic activity of human plasmin. Here, plasmin cleaves from the peptic plasmin substrate the C-terminal aminomethylcoumarin (AMC), the fluorescence of which is measured. The determinations are carried out in microtitre plates.
as §1, with “plasmin” for “factor XIa”, “(0.3 μg/ml” for “(0.45 nM”, “MeOSuc-Ala-Phe-Lys-AMC” for “Boc-Glu(OBzl)-Ala-Arg-AMC”, “(150” for “(10”, “ICso” for “IC50”

Structures are written as SMILES. Structures can show the parent of a compound that is named as a salt.

T1 sequence (P03951 388-625 limits assumed): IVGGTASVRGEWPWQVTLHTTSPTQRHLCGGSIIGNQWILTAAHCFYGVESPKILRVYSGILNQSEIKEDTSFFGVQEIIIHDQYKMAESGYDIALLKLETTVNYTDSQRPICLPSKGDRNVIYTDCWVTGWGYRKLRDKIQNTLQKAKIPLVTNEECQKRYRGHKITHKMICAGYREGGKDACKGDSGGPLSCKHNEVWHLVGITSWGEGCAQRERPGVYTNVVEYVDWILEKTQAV
T1 sequence (P03951 19-387 partner limits assumed): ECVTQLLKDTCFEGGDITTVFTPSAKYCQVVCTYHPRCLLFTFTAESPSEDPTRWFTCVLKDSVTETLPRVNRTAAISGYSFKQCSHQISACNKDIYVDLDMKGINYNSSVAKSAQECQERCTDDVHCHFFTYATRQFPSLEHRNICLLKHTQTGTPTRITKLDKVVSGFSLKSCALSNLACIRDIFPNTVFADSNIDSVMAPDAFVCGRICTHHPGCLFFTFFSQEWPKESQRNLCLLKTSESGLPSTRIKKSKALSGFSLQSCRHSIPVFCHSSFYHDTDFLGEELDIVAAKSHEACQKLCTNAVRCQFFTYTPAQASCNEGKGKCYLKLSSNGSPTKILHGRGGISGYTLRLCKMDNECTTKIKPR
T2 sequence (P00747 581-810 limits assumed): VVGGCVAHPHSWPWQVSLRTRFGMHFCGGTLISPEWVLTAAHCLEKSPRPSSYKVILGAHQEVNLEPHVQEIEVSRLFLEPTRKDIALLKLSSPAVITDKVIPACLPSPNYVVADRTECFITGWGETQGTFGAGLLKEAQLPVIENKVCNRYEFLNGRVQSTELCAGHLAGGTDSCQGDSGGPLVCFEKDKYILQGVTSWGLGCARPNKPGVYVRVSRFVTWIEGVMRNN
T2 sequence (P00747 97-580 partner limits assumed): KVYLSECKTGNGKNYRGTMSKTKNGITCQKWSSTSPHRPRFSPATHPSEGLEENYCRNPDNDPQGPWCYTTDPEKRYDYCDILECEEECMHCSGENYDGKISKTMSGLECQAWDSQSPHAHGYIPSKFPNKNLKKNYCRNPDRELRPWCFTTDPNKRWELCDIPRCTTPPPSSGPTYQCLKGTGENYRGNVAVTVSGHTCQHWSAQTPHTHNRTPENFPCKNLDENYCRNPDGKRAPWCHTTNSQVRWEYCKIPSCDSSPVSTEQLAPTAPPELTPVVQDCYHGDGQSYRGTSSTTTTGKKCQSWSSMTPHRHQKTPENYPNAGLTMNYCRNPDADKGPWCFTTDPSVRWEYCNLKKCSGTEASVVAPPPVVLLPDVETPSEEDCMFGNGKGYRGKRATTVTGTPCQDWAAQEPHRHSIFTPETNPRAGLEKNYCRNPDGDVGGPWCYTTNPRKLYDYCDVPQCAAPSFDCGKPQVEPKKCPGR

As for `Cc1cc2oc(C3CC3)nc2cc1-c1ccc(C[C@H](NC(=O)[C@H]2CC[C@H](CN)CC2)C(=O)Nc2ccc(-c3nnn[nH]3)cc2)cc1.Cl` (relative stereo) [Example 26, N-alpha-{[trans-4-(Aminomethyl)cyclohexyl]carbonyl}-4-(2-cyclopropyl-6-methyl-1,3-benzoxazol-5-yl)-N-[4-(1H-tetrazol-5-yl)phenyl]-L-phenylalaninamide hydrochloride], the values for the IC50 against human factor XIa and against human plasmin were 1.4 nM and 2.7 nM, respectively. Further, the “aPTT (concentration of test substance which brings about a 1.5-fold extension of the aPTT)” value with human and animal plasma was 0.18 µmol/L.
Consider `Cc1cc2[nH]c(C(C)C)nc2cc1-c1ccc(C[C@@H](NC(=O)C2CCC(CN)CC2)C(=O)Nc2ccc3[nH]c(=O)[nH]c3c2)cc1` (single isomer, unassigned; enantiomer 1) [Example 38, N-alpha-{[trans-4-(Aminomethyl)cyclohexyl]carbonyl}-4-(2-isopropyl-6-methyl-1H-benzimidazol-5-yl)-N-(2-oxo-2,3-dihydro-1H-benzimidazol-5-yl)-D-phenylalaninamide hydrochloride (Enantiomer 1)], for which the IC50 came out at 37 nM on human factor XIa and 20 nM against human plasmin.
As for `Cc1cc2[nH]c(C(C)C)nc2cc1-c1ccc(C[C@H](NC(=O)C2CCC(CN)CC2)C(=O)Nc2ccc3[nH]c(=O)[nH]c3c2)cc1` (single isomer, unassigned; enantiomer 2) [Example 39, N-alpha-{[trans-4-(Aminomethyl)cyclohexyl]carbonyl}-4-(2-isopropyl-6-methyl-1H-benzimidazol-5-yl)-N-(2-oxo-2,3-dihydro-1H-benzimidazol-5-yl)-L-phenylalaninamide hydrochloride (Enantiomer 2)], the values for the concentration for half-maximal inhibition (IC50) against human factor XIa and on human plasmin were 1.1 nM and 0.64 nM, respectively.
`Cc1cc2nc[nH]c2cc1-c1ccc(C[C@H](NC(=O)C2CCC(CN)CC2)C(=O)Nc2ccc(-c3nn[nH]n3)cc2)cc1` (stereo partly drawn) [Example 1, N-alpha-{[trans-4-(Aminomethyl)cyclohexyl]carbonyl}-4-(5-methyl-1H-benzimidazol-6-yl)-N-[4-(2H-tetrazol-5-yl)phenyl]-L-phenylalaninamide hydrochloride]: the IC50 turned out to be 0.9 nM against human factor XIa and 22 nM at human plasmin. Further, the “aPTT (concentration of test substance which brings about a 1.5-fold extension of the aPTT)” value in the test on human and animal plasma came out at 0.07 µmol/L.
`Cc1cc2nc[nH]c2cc1-c1ccc(C[C@H](NC(=O)[C@H]2CC[C@H](CN)CC2)C(=O)Nc2ccc3c(=O)[nH][nH]c3c2)cc1` [Example 8, N-alpha-{[trans-4-(Aminomethyl)cyclohexyl]carbonyl}-4-(5-methyl-1H-benzimidazol-6-yl)-N-(3-oxo-2,3-dihydro-1H-indazol-6-yl)-L-phenylalaninamide hydrochloride]: the IC50 turned out to be 6 nM against human factor XIa and 21 nM on human plasmin.
For `NC[C@H]1CC[C@H](C(=O)N[C@@H](Cc2ccc(-c3ccc4c(c3)NC(=O)CC4)cc2)C(=O)Nc2ccc(-c3nn[nH]n3)cc2)CC1` [Example 9, N-alpha-{[trans-4-(Aminomethyl)cyclohexyl]carbonyl}-4-(2-oxo-1,2,3,4-tetrahydroquinolin-7-yl)-N-[4-(2H-tetrazol-5-yl)phenyl]-L-phenylalaninamide hydrochloride] the same measures were 3.7 nM and 25 nM.
Take `NC[C@H]1CC[C@H](C(=O)N[C@@H](Cc2ccc(-c3ccc4c(c3)NC(=O)CC4)cc2)C(=O)Nc2ccc(-c3nn[nH]n3)c(F)c2)CC1` [Example 12, N-alpha-{[trans-4-(Aminomethyl)cyclohexyl]carbonyl}-N-[3-fluoro-4-(2H-tetrazol-5-yl)phenyl]-4-(2-oxo-1,2,3,4-tetrahydroquinolin-7-yl)-L-phenylalaninamide hydrochloride]: the IC50 against human factor XIa turned out to be 2.4 nM; on human plasmin, 5.9 nM.
Regarding `Cc1cc2[nH]c(C(C)C)nc2cc1-c1ccc(C[C@H](NC(=O)[C@H]2CC[C@H](CN)CC2)C(=O)Nc2ccc3[nH]c(=O)[nH]c3c2)cc1` [Example 19, N-alpha-{[trans-4-(Aminomethyl)cyclohexyl]carbonyl}-4-(2-isopropyl-6-methyl-1H-benzimidazol-5-yl)-N-(2-oxo-2,3-dihydro-1H-benzimidazol-5-yl)-L-phenylalaninamide], the IC50 on human factor XIa was 3.1 nM; on human plasmin, 1.3 nM.
Consider `Cc1cc2[nH]c(C3CC3)nc2cc1-c1ccc(C[C@H](NC(=O)[C@H]2CC[C@H](CN)CC2)C(=O)Nc2cc(Cl)c3[nH]c(=O)[nH]c3c2)cc1` [Example 20, N-alpha-{[trans-4-(Aminomethyl)cyclohexyl]carbonyl}-N-(7-chloro-2-oxo-2,3-dihydro-1H-benzimidazol-5-yl)-4-(2-cyclopropyl-6-methyl-1H-benzimidazol-5-yl)-L-phenylalaninamide], for which the IC50 on human factor XIa is 0.9 nM; against human plasmin, 0.4 nM. The “aPTT (concentration of test substance which brings about a 1.5-fold extension of the aPTT)” value in the test with human and animal plasma stood at 0.26 µmol/L.
For the molecule `Cc1nc2[nH]c(C3CC3)nc2cc1-c1ccc(C[C@H](NC(=O)[C@H]2CC[C@H](CN)CC2)C(=O)Nc2ccc3[nH]c(=O)[nH]c3c2)cc1` [Example 21, N-alpha-{[trans-4-(Aminomethyl)cyclohexyl]carbonyl}-4-(2-cyclopropyl-5-methyl-1H-imidazo[4,5-b]pyridin-6-yl)-N-(2-oxo-2,3-dihydro-1H-benzimidazol-5-yl)-L-phenylalaninamide], the IC50 was determined as 0.7 nM on human factor XIa and 0.4 nM at human plasmin. Besides, the “aPTT (concentration of test substance which brings about a 1.5-fold extension of the aPTT)” value in the test on human and animal plasma turned out to be 0.3 µmol/L.
For `Cc1cc2[nH]c(C3CC3)nc2cc1-c1ccc(C[C@H](NC(=O)[C@H]2CC[C@H](CN)CC2)C(=O)Nc2cc(F)c3c(=O)[nH][nH]c3c2)cc1` [Example 22, N-alpha-{[trans-4-(Aminomethyl)cyclohexyl]carbonyl}-4-(2-cyclopropyl-6-methyl-1H-benzimidazol-5-yl)-N-(4-fluoro-3-oxo-2,3-dihydro-1H-indazol-6-yl)-L-phenylalaninamide hydrochloride] the same measures were 0.5 nM, 0.6 nM and 0.18 µmol/L.
Regarding `Cc1cc2nc(C(C)C)[nH]c2cc1-c1ccc(C[C@H](NC(=O)[C@H]2CC[C@H](CN)CC2)C(=O)Nc2ccc(-c3nnc(C(F)(F)C(F)(F)C(=O)O)[nH]3)cc2)cc1` [Example 24, 3-[5-(4-{[N-{[trans-4-(Aminomethyl)cyclohexyl]carbonyl}-4-(2-isopropyl-6-methyl-1H-benzimidazol-5-yl)-L-phenylalanyl]amino}phenyl)-4H-1,2,4-triazol-3-yl]-2,2,3,3-tetrafluoropropanoic acid hydrochloride], the IC50 came out at 0.5 nM against human factor XIa and 1.4 nM at human plasmin.
With `NC[C@H]1CC[C@H](C(=O)N[C@@H](Cc2ccc(-c3ccc4c(c3)CNC4=O)cc2)C(=O)Nc2ccc(-c3nc(C(F)(F)C(F)(F)C(=O)O)n[nH]3)cc2)CC1` [Example 29, 3-[5-(4-{[N-{[trans-4-(Aminomethyl)cyclohexyl]carbonyl}-4-(1-oxo-2,3-dihydro-1H-isoindol-5-yl)-L-phenylalanyl}amino}phenyl)-1H-1,2,4-triazol-3-yl]-2,2,3,3-tetrafluoropropanoic acid hydrochloride], the IC50 against human factor XIa was 3.9 nM. Further, in the test with human and animal plasma, the “aPTT (concentration of test substance which brings about a 1.5-fold extension of the aPTT)” value was 0.28 µmol/L.
